Laboratory results from ChEMBL document CHEMBL3886479, “1-H-pyrrolo[2,3-b]pyridine derivatives” (2016).

Target: T1, 3-phosphoinositide-dependent protein kinase 1 (Homo sapiens, UniProt O15530)
T1 sequence (O15530 whole entry): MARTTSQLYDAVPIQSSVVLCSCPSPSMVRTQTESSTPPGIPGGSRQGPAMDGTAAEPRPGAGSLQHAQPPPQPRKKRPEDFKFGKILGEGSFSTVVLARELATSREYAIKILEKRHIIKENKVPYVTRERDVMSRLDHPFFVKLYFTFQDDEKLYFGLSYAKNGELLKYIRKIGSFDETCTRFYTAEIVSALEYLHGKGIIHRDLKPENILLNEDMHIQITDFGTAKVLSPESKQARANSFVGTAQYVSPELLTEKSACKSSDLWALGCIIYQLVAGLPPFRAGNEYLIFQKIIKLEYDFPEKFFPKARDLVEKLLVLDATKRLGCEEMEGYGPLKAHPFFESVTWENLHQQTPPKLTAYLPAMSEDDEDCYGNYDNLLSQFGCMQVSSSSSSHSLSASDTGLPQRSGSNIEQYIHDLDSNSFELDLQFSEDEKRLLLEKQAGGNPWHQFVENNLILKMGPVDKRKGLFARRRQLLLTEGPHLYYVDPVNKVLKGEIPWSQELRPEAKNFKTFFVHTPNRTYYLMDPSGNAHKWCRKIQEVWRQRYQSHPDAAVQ
Assay: Luminex Assay: The cellular assay for the determination of the PDK1 kinase activity is carried out as a Luminex assay in the 96-well format. PC3 cells are sown at 20,000 cells per well in 100 ul of medium (45% of […]/45% of Ham's F12/10% of FCS) and incubated on the following day for 30 min with a serial dilution of the test substance (7 concentrations) under serum-free conditions. The cells are subsequently lysed using 90 ul of lysis buffer (20 mM tris/HCl pH 8.0, 150 mM NaCl, 1% of NP40, 10% of glycerol, 1% of phosphatase inhibitor I, 1% of phosphatase inhibitor II, 0.1% of protease inhibitor cocktail III, 0.01% of benzonase) per well, and the lysates are separated off from insoluble cell constituents by means of centrifugation through a 96-well filter plate (0.65 um). The lysates are incubated overnight at 4° C. with shaking with Luminex beads to which an anti-total PKB antibody is coupled. The detection is carried out on the following day by addition of a phospho-T308-PKB antibody and a species-specific peroxidase-labelled secondary antibody.
Format: cell-based
Details: pc-3

- IC50: 7.1 nM
SMILES: Cn1cc(-c2cnc3[nH]cc(-c4cc(N(CCC#N)c5ccccc5)nc(N)n4)c3c2)cn1
